For one test, the target named is CK1δ (Homo sapiens, UniProt P48730). Put plainly: CK1δ kinase assay (Caliper LabChip electrophoretic separation of fluoresceinated peptide substrate and product). It counts as biochemical. The note with it: 200 pM CK1δ, 50 μM ATP, 1.5 μM peptide, 22 hours at room temperature. Summed up: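 IC50 values were obtained by non-linear regression from eleven-concentration titrations. The kinase reactions were incubated for 22 hours at room temperature before termination with 35 mM EDTA.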
Chain of CK1δ (P48730 whole entry): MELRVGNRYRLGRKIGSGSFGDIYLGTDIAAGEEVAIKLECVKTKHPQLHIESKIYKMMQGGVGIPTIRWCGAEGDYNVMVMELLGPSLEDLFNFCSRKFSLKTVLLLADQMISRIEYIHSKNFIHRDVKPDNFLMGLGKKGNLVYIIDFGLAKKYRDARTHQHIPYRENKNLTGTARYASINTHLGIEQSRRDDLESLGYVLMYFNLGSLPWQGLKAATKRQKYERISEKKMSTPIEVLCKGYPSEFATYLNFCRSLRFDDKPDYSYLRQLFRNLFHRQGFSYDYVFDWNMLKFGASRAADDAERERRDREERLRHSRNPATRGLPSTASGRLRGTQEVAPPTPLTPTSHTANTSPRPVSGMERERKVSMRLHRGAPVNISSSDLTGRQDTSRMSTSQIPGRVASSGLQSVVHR

The next test addresses CK1ε (Homo sapiens, UniProt P49674). Put plainly: CK1ε kinase assay (Caliper LabChip electrophoretic separation of fluoresceinated peptide substrate and product). It counts as biochemical. The following applies: 200 pM CK1ε, 50 μM ATP, 1.5 μM peptide, 22 hours at room temperature. On the procedure: CK1ε and CK1δ Kinase Assays
The kinase assay was performed in V-bottom 384-well plates. […] The reaction was incubated at room temperature for 22 hours and terminated by adding 45 μl of 35 mM EDTA to each sample. The reaction mixture was analyzed on the Caliper LABCHIP®3000 (Caliper, Hopkinton, Mass.) by electrophoretic separation of the unphosphorylated substrate and phosphorylated product. […] Compounds were dissolved at 10 mM in dimethylsulfoxide (DMSO) and evaluated at eleven concentrations. IC50 values were derived by non-linear regression analysis.

Like-named read-outs stand apart in the source and are kept apart here.

Chain of CK1ε (P49674 whole entry): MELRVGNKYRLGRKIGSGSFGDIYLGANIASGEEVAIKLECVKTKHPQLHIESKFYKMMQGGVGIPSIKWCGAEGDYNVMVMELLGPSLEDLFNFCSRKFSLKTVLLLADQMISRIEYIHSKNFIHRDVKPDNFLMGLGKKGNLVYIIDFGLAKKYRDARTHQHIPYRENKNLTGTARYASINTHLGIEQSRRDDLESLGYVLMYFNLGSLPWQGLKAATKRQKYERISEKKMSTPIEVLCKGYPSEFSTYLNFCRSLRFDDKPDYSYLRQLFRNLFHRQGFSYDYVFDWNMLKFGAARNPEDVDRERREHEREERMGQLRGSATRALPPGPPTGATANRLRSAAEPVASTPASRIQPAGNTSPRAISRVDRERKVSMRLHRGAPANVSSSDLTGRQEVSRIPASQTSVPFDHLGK

As to `NC(=O)c1c(-c2cccc(Cl)c2)nn2c1CN(C(=O)NC1CC(COC(F)F)C1)CC2` (single isomer, unassigned) [Compound 244, 2-(3-Chlorophenyl)-N^5-(3-((difluoromethoxy)methyl)cyclobutyl)-6,7-dihydropyrazolo[1,5-a]pyrazine-3,5(4H)-dicarboxamide], the IC50 at CK1δ (read-out: CK1δ IC50 range) and on CK1ε (read-out: CK1ε IC50 range) was 0.01 to 10 nM each time.
Take `NC(=O)c1c(-c2cccc(Cl)c2)nn2c1CN(C(=O)NC1CC(COC(F)F)C1)CC2` (single isomer, unassigned) [Compound 245, 2-(3-Chlorophenyl)-N^5-(3-((difluoromethoxy)methyl)cyclobutyl)-6,7-dihydropyrazolo[1,5-a]pyrazine-3,5(4H)-dicarboxamide]: the IC50 on CK1δ (read-out: CK1δ IC50 range) and on CK1ε (read-out: CK1ε IC50 range) was 0.01 to 10 nM each time.
For the molecule `CC1CC(NC(=O)N2CCn3nc(-c4ccc(F)c(Cl)c4)c(C(N)=O)c3C2)C1` (single isomer, unassigned) [Compound 246, 2-(3-Chloro-4-fluorophenyl)-N^5-(3-methylcyclobutyl)-6,7-dihydropyrazolo[1,5-a]pyrazine-3,5(4H)-dicarboxamide], the IC50 on CK1δ (read-out: CK1δ IC50 range) and at CK1ε (read-out: CK1ε IC50 range) was 0.01 to 10 nM each time.
On to `CC1CC(NC(=O)N2CCn3nc(-c4ccc(F)c(Cl)c4)c(C(N)=O)c3C2)C1` (single isomer, unassigned) [Compound 247, 2-(3-Chloro-4-fluorophenyl)-N^5-(3-methylcyclobutyl)-6,7-dihydropyrazolo[1,5-a]pyrazine-3,5(4H)-dicarboxamide], for which the IC50 at CK1δ (read-out: CK1δ IC50 range) and on CK1ε (read-out: CK1ε IC50 range) was 0.01 to 10 nM each time.
For the molecule `CC1CC(NC(=O)N2CCn3nc(-c4ccc(Cl)c(Cl)c4)c(C(N)=O)c3C2)C1` (single isomer, unassigned) [Compound 248, 2-(3,4-Dichlorophenyl)-N^5-(3-methylcyclobutyl)-6,7-dihydropyrazolo[1,5-a]pyrazine-3,5(4H)-dicarboxamide], the IC50 on CK1δ (read-out: CK1δ) is 1.5 nM; at CK1δ (read-out: CK1δ IC50 range), 0.01 to 10 nM; on CK1ε (read-out: CK1ε), 0.4 nM; on CK1ε (read-out: CK1ε IC50 range), 0.01 to 10 nM.
`CC1CC(NC(=O)N2CCn3nc(-c4ccc(Cl)c(Cl)c4)c(C(N)=O)c3C2)C1` (single isomer, unassigned) [Compound 249, 2-(3,4-Dichlorophenyl)-N^5-(3-methylcyclobutyl)-6,7-dihydropyrazolo[1,5-a]pyrazine-3,5(4H)-dicarboxamide]: the IC50 on CK1δ (read-out: CK1δ IC50 range) and at CK1ε (read-out: CK1ε IC50 range) was 0.01 to 10 nM each time.
For the molecule `CC1CC(NC(=O)N2CCn3nc(-c4cccc(Cl)c4)c(C(N)=O)c3C2)C1` (single isomer, unassigned) [Compound 250, 2-(3-Chlorophenyl)-N^5-(3-methylcyclobutyl)-6,7-dihydropyrazolo[1,5-a]pyrazine-3,5(4H)-dicarboxamide], the IC50 at CK1δ (read-out: CK1δ IC50 range) and on CK1ε (read-out: CK1ε IC50 range) was 0.01 to 10 nM throughout.
With `CC1CC(NC(=O)N2CCn3nc(-c4cccc(Cl)c4)c(C(N)=O)c3C2)C1` (single isomer, unassigned) [Compound 251, 2-(3-Chlorophenyl)-N^5-(3-methylcyclobutyl)-6,7-dihydropyrazolo[1,5-a]pyrazine-3,5(4H)-dicarboxamide], the IC50 on CK1δ (read-out: CK1δ IC50 range) and at CK1ε (read-out: CK1ε IC50 range) was 0.01 to 10 nM each time.
`CC1(NC(=O)N2CCn3nc(-c4ccc(F)c(Cl)c4)c(C(N)=O)c3C2)CC(C(F)F)C1` (single isomer, unassigned) [Compound 258, 2-(3-Chloro-4-fluorophenyl)-N^5-(3-(difluoromethyl)-1-methylcyclobutyl)-6,7-dihydropyrazolo[1,5-a]pyrazine-3,5(4H)-dicarboxamide]: the IC50 on CK1δ (read-out: CK1δ) is 0.5 nM; at CK1δ (read-out: CK1δ IC50 range), 0.01 to 10 nM; on CK1ε (read-out: CK1ε), 0.7 nM; on CK1ε (read-out: CK1ε IC50 range), 0.01 to 10 nM.
Regarding `CC1(NC(=O)N2CCn3nc(-c4ccc(F)c(Cl)c4)c(C(N)=O)c3C2)CC(C(F)F)C1` (single isomer, unassigned) [Compound 259, 2-(3-Chloro-4-fluorophenyl)-N^5-(3-(difluoromethyl)-1-methylcyclobutyl)-6,7-dihydropyrazolo[1,5-a]pyrazine-3,5(4H)-dicarboxamide], the IC50 at CK1δ (read-out: CK1δ IC50 range) and at CK1ε (read-out: CK1ε IC50 range) was 0.01 to 10 nM each time.
`NC(=O)c1c(-c2ccc(F)c(Cl)c2)nn2c1CN(C(=O)NC1CC3(C1)CC3(F)F)CC2` (single isomer, unassigned) [Compound 320, 2-(3-Chloro-4-fluorophenyl)-N^5-(1,1-difluorospiro[2.3]hexan-5-yl)-6,7-dihydropyrazolo[1,5-a]pyrazine-3,5(4H)-dicarboxamide]: the IC50 on CK1δ (read-out: CK1δ IC50 range) and at CK1ε (read-out: CK1ε IC50 range) was 0.01 to 10 nM in each case.
As for `NC(=O)c1c(-c2ccc(F)c(Cl)c2)nn2c1CN(C(=O)NC1CC3(C1)CC3(F)F)CC2` (single isomer, unassigned) [Compound 321, 2-(3-Chloro-4-fluorophenyl)-N^5-(1,1-difluorospiro[2.3]hexan-5-yl)-6,7-dihydropyrazolo[1,5-a]pyrazine-3,5(4H)-dicarboxamide], the IC50 at CK1δ (read-out: CK1δ IC50 range) and at CK1ε (read-out: CK1ε IC50 range) was 0.01 to 10 nM in each case.
`NC(=O)c1c(-c2cccc(Cl)c2)nn2c1CN(C(=O)NC1CC3(C1)CC3(F)F)CC2` (single isomer, unassigned) [Compound 322, 2-(3-Chlorophenyl)-N^5-(1,1-difluorospiro[2.3]hexan-5-yl)-6,7-dihydropyrazolo[1,5-a]pyrazine-3,5(4H)-dicarboxamide]: the IC50 on CK1δ (read-out: CK1δ IC50 range) and on CK1ε (read-out: CK1ε IC50 range) was 0.01 to 10 nM throughout.
`NC(=O)c1c(-c2cccc(Cl)c2)nn2c1CN(C(=O)NC1CC3(C1)CC3(F)F)CC2` (single isomer, unassigned) [Compound 323, 2-(3-Chlorophenyl)-N^5-(1,1-difluorospiro[2.3]hexan-5-yl)-6,7-dihydropyrazolo[1,5-a]pyrazine-3,5(4H)-dicarboxamide]: the IC50 on CK1δ (read-out: CK1δ IC50 range) and at CK1ε (read-out: CK1ε IC50 range) was 0.01 to 10 nM throughout.
As for `NC(=O)c1c(-c2ccc(Cl)c(Cl)c2)nn2c1CN(C(=O)NC1CC3(C1)CC3(F)F)CC2` (single isomer, unassigned) [Compound 324, 2-(3,4-Dichlorophenyl)-N^5-(1,1-difluorospiro[2.3]hexan-5-yl)-6,7-dihydropyrazolo[1,5-a]pyrazine-3,5(4H)-dicarboxamide], the IC50 on CK1δ (read-out: CK1δ IC50 range) and at CK1ε (read-out: CK1ε IC50 range) was 0.01 to 10 nM each time.
On to `NC(=O)c1c(-c2ccc(Cl)c(Cl)c2)nn2c1CN(C(=O)NC1CC3(C1)CC3(F)F)CC2` (single isomer, unassigned) [Compound 325, 2-(3,4-Dichlorophenyl)-N^5-(1,1-difluorospiro[2.3]hexan-5-yl)-6,7-dihydropyrazolo[1,5-a]pyrazine-3,5(4H)-dicarboxamide], for which the IC50 on CK1δ (read-out: CK1δ IC50 range) and at CK1ε (read-out: CK1ε IC50 range) was 0.01 to 10 nM in each case.
Take `CC1(NC(=O)N2CCn3nc(-c4ccc(F)c(Cl)c4)c(C(N)=O)c3C2)CC2(C1)CC2(F)F` (single isomer, unassigned) [Compound 326, 2-(3-Chloro-4-fluorophenyl)-N5-(1,1-difluoro-5-methylspiro[2.3]hexan-5-yl)-6,7-dihydropyrazolo[1,5-a]pyrazine-3,5(4H)-dicarboxamide]: the IC50 on CK1δ (read-out: CK1δ IC50 range) and at CK1ε (read-out: CK1ε IC50 range) was 0.01 to 10 nM each time.
For `CC1(NC(=O)N2CCn3nc(-c4ccc(F)c(Cl)c4)c(C(N)=O)c3C2)CC2(C1)CC2(F)F` (single isomer, unassigned) [Compound 327, 2-(3-Chloro-4-fluorophenyl)-N5-(1,1-difluoro-5-methylspiro[2.3]hexan-5-yl)-6,7-dihydropyrazolo[1,5-a]pyrazine-3,5(4H)-dicarboxamide], the IC50 at CK1δ (read-out: CK1δ IC50 range) and on CK1ε (read-out: CK1ε IC50 range) was 0.01 to 10 nM each time.
On to `CC1(NC(=O)N2CCn3nc(-c4ccc(Cl)c(Cl)c4)c(C(N)=O)c3C2)CC2(C1)CC2(F)F` (single isomer, unassigned) [Compound 328, 2-(3,4-Dichlorophenyl)-N^5-(1,1-difluoro-5-methylspiro[2.3]hexan-5-yl)-6,7-dihydropyrazolo[1,5-a]pyrazine-3,5(4H)-dicarboxamide], for which the IC50 at CK1δ (read-out: CK1δ IC50 range) and at CK1ε (read-out: CK1ε IC50 range) was 0.01 to 10 nM each time.
As for `CC1(NC(=O)N2CCn3nc(-c4ccc(Cl)c(Cl)c4)c(C(N)=O)c3C2)CC2(C1)CC2(F)F` (single isomer, unassigned) [Compound 329, 2-(3,4-Dichlorophenyl)-N^5-(1,1-difluoro-5-methylspiro[2.3]hexan-5-yl)-6,7-dihydropyrazolo[1,5-a]pyrazine-3,5(4H)-dicarboxamide], the IC50 on CK1δ (read-out: CK1δ IC50 range) and on CK1ε (read-out: CK1ε IC50 range) was 0.01 to 10 nM each time.
`CC1(NC(=O)N2CCn3nc(-c4cccc(Cl)c4)c(C(N)=O)c3C2)CC2(C1)CC2(F)F` (single isomer, unassigned) [Compound 330, 2-(3-Chlorophenyl)-N^5-(1,1-difluoro-5-methylspiro[2.3]hexan-5-yl)-6,7-dihydropyrazolo[1,5-a]pyrazine-3,5(4H)-dicarboxamide]: the IC50 on CK1δ (read-out: CK1δ IC50 range) and at CK1ε (read-out: CK1ε IC50 range) was 0.01 to 10 nM in each case.
On to `CC1(NC(=O)N2CCn3nc(-c4cccc(Cl)c4)c(C(N)=O)c3C2)CC2(C1)CC2(F)F` (single isomer, unassigned) [Compound 331, 2-(3-Chlorophenyl)-N^5-(1,1-difluoro-5-methylspiro[2.3]hexan-5-yl)-6,7-dihydropyrazolo[1,5-a]pyrazine-3,5(4H)-dicarboxamide], for which the IC50 at CK1δ (read-out: CK1δ IC50 range) and on CK1ε (read-out: CK1ε IC50 range) was 0.01 to 10 nM each time.
